# Read-outs that look alike come from different tables or passages of the source.
# Experiments:
# [1] = system: Respiratory Syncytial Virus (RSV) long strain; experiment: microbe, parasite or virus in culture; format: cell-based; details: human respiratory syncytial virus, Tables A and B list compounds by EC50 band
# Procedure, shortened: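 HEp-2 cells infected with 100 TCID50 virus per well, compounds in duplicate, 9-point 1/3 dilutions from 100 μM or 1 μM, 1% DMSO. After 5 days at 37 °C, cell viability (CPE protection) read by CCK-8 absorbance at 450 nm, 630 nm background.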
# [2] = Cytotoxicity Determination (CCK-8, without addition of virus); format: cell-based; details: human, 50% cytotoxicity concentration (CC50)
# Procedure, shortened: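 HEp-2 cells were seeded at 1,500 cells/well one day before compound addition. Compounds were tested without virus in duplicate over 7 points from 100 μM in 1/2 steps, with 1% final DMSO, 5 days at 37 °C, 5% CO2. Viability was read by CCK-8 after 3-4 hours.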
# [3] = target: recombinant RSV complex (Human respiratory syncytial virus A, UniProt P28887); experiment: RSV Polymerase Inhibition Assay; format: biochemical
# Chain of recombinant RSV complex (P28887 whole entry): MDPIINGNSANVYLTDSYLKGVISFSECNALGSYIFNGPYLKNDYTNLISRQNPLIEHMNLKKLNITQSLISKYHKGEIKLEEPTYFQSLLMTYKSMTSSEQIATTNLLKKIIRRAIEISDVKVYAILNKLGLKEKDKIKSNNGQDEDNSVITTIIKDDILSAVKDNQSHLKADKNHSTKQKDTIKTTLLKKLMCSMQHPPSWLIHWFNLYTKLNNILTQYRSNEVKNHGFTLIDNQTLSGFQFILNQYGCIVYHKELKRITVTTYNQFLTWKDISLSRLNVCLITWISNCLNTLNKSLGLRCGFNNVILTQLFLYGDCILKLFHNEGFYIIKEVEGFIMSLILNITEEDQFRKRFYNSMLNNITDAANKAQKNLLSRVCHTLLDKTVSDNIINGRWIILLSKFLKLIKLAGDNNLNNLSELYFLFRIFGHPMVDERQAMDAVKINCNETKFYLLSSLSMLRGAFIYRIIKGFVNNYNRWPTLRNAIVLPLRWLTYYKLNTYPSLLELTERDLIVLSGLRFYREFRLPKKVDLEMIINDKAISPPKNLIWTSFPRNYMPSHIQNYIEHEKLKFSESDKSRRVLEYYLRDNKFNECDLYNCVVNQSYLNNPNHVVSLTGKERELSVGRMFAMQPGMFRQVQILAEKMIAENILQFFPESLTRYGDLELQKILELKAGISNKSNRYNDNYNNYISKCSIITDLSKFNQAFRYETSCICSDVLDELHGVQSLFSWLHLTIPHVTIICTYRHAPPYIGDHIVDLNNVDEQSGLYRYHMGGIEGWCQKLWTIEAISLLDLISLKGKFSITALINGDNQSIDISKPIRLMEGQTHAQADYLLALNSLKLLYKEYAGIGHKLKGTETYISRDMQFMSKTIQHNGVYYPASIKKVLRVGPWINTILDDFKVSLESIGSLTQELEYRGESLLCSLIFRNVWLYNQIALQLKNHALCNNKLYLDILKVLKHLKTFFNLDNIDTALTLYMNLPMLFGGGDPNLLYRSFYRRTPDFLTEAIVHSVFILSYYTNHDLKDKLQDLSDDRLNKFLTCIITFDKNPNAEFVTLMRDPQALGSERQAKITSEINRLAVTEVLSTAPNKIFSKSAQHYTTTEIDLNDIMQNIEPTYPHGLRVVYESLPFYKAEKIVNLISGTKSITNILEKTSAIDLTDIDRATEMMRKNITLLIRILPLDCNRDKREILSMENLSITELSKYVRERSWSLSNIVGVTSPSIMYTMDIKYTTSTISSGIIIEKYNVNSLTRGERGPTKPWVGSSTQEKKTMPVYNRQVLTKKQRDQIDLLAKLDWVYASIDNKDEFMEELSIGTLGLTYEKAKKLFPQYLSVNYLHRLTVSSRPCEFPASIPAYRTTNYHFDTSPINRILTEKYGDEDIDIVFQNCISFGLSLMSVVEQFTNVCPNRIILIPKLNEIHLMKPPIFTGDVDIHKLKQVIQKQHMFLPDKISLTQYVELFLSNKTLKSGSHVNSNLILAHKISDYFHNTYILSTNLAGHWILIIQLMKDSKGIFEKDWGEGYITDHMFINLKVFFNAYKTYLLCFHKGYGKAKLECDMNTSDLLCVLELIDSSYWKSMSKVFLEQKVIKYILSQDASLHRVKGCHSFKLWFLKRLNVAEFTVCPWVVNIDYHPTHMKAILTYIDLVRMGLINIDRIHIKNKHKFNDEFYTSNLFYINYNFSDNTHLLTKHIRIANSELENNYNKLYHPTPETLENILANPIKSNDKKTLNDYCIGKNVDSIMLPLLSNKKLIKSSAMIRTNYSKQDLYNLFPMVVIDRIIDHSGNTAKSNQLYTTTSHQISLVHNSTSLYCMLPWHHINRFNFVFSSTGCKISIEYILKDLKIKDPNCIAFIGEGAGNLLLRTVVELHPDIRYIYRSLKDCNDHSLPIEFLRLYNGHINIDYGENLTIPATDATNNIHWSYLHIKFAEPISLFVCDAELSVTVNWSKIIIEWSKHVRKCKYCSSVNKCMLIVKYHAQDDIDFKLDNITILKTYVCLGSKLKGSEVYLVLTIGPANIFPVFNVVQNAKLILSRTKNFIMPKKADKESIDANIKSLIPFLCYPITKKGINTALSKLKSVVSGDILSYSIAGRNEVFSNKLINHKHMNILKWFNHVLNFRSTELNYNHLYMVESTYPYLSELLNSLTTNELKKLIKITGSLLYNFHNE
# Chain of recombinant RSV complex (P03421 whole entry, further chain): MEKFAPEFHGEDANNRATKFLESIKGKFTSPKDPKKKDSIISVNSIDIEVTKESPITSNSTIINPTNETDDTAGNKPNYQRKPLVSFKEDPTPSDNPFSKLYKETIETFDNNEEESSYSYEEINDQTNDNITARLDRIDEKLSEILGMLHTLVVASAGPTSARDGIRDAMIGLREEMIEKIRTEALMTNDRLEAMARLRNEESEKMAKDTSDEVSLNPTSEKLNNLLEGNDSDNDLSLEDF
# Procedure, shortened: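 10 nM recombinant RSV polymerase complex in Tris-HCl pH 7.5, 6 mM MgCl2 with RNA oligonucleotide template and radionucleotides, incubated 2 h at 30 °C with increasing inhibitor concentrations. Reaction stopped with EDTA; radiolabeled RNA product counted by scintillation.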
# [4] = system: RSV replicon; experiment: microbe, parasite or virus in culture; format: cell-based; details: human respiratory syncytial virus, read-out: EC50, the concentration of the drug required for reducing RSV replicon RNA by 50%
# [5] = HEp-2, 120 h, read-out: 50% effective concentration (EC50), HEp-2 cells infected with RSV long strain, 5 days, CCK-8 readout
# [6] = 120 h, read-out: 50% effective concentration (EC50), HEp-2 cells infected with RSV long strain, 5 days, CCK-8 readout
smiles,measurement,setting,value
COc1cc(C(=O)NCC(O)(c2cc(CN)cc(-c3ccc(F)c(Cl)c3)n2)C(F)(F)F)ccc1OC[C@@H](C)O (some centres unmarked) [Compound 357],EC50,[1]; [5],< 1 µM
same,CC50 at 5 days,[2],10 to 100 µM
same,IC50,[3],< 1 µM
same,EC50,[4],< 1 µM
COc1cc(C(=O)NCC(O)(c2ccc(OC)c(-c3ccc(F)c(Cl)c3)n2)C(F)(F)F)ccc1OC1CC1(F)F (centres unmarked) [Compound 358],EC50,[1]; [5],< 1 µM
same,CC50 at 5 days,[2],> 100 µM
same,IC50,[3],< 1 µM
same,EC50,[4],< 1 µM
COc1ccc(C(=O)NCC(O)(c2ccc(OC)c(-c3ccc(F)c(Cl)c3)n2)C2CC2)cc1OC (centres unmarked) [Compound 359],EC50,[1]; [5],< 1 µM
same,CC50 at 5 days,[2],10 to 100 µM
same,IC50,[3],< 1 µM
same,EC50,[4],< 1 µM
COc1cc(C(=O)NCC(O)(c2ccc(OC)c(-c3ccc(F)c(Cl)c3)n2)C2CC2)ccc1OCc1ncn[nH]1 (centres unmarked) [Compound 360],EC50,[1]; [6],< 1 µM
same,CC50 at 5 days,[2],10 to 100 µM
same,IC50,[3],< 1 µM
same,EC50,[4],< 1 µM
COc1cc(C(=O)NCC(O)(c2cc(CN)cc(-c3ccc(F)cc3)n2)C(F)(F)F)ccc1OC1CC1 (centres unmarked) [Compound 361],EC50,[1]; [5],< 1 µM
same,CC50 at 5 days,[2],10 to 100 µM
same,IC50,[3],< 1 µM
same,EC50,[4],< 1 µM
COc1cc(C(=O)NCC(O)(c2ccc(OC)c(-c3ccc(F)c(Cl)c3)n2)C(F)(F)F)ccc1OCC(C)=O (centres unmarked) [Compound 362],EC50,[1]; [5],< 1 µM
same,CC50 at 5 days,[2],10 to 100 µM
same,IC50,[3],< 1 µM
same,EC50,[4],< 1 µM
COc1cc(C(=O)NCC(C)(F)c2ccc(OC)c(-c3ccc(F)c(Cl)c3)n2)ccc1OCCF (centres unmarked) [Compound 364],EC50,[1]; [5],< 1 µM
same,CC50 at 5 days,[2],10 to 100 µM
same,IC50,[3],< 1 µM
same,EC50,[4],< 1 µM
COc1cc(C(=O)NCC(C)(F)c2ccc(OC)c(-c3ccc(F)c(Cl)c3)n2)ccc1OCCO (centres unmarked) [Compound 365],EC50,[1]; [5],< 1 µM
same,CC50 at 5 days,[2],10 to 100 µM
same,IC50,[3],< 1 µM
same,EC50,[4],< 1 µM
COc1cc(C(=O)NCC(F)(c2ccc(OC)c(-c3ccc(F)c(Cl)c3)n2)C2CC2)ccc1OCCO (centres unmarked) [Compound 366],EC50,[1]; [5],< 1 µM
same,CC50 at 5 days,[2],10 to 100 µM
same,IC50,[3],< 1 µM
same,EC50,[4],< 1 µM
COc1cc(C(=O)NCC(C)(O)c2ccc(OC)c(-c3ccc(F)c(Cl)c3)n2)ccc1OC1CC1 (centres unmarked) [Compound 369],EC50,[1]; [5],< 1 µM
same,CC50 at 5 days,[2],10 to 100 µM
same,IC50,[3],< 1 µM
same,EC50,[4],< 1 µM
COc1cc(C(=O)NCC(O)(c2ccc(OC)c(-c3ccc(F)c(Cl)c3)n2)C(F)(F)F)ccc1OC1CC1 (centres unmarked) [Compound 370],EC50,[1]; [6],< 1 µM
same,CC50 at 5 days,[2],> 100 µM
same,IC50,[3],< 1 µM
same,EC50,[4],< 1 µM
COc1cc(C(=O)NCC(C)(O)c2ccc(OC)c(-c3ccc(F)c(Cl)c3)n2)ccc1OC(C)(C)C (centres unmarked) [Compound 371],EC50,[1]; [5],< 1 µM
same,CC50 at 5 days,[2],10 to 100 µM
same,IC50,[3],< 1 µM
same,EC50,[4],< 1 µM
COc1cc(C(=O)NCC(C)(O)c2ccc(OC)c(-c3ccc(F)c(Cl)c3)n2)ccc1OCC(F)F (centres unmarked) [Compound 372],EC50,[1]; [5],< 1 µM
same,CC50 at 5 days,[2],10 to 100 µM
same,IC50,[3],< 1 µM
same,EC50,[4],< 1 µM
COc1cc(C(=O)NCC(O)(c2ccc(OC)c(-c3ccc(F)c(Cl)c3)n2)C(F)(F)F)ccc1OCC(F)F (centres unmarked) [Compound 373],EC50,[1]; [5],< 1 µM
same,CC50 at 5 days,[2],> 100 µM
same,IC50,[3],< 1 µM
same,EC50,[4],< 1 µM
COc1cc(C(=O)OCC(O)(CN)c2ccc(OC)c(-c3ccc(F)c(Cl)c3)n2)ccc1OC1CC1 (centres unmarked) [Compound 383],EC50,[1]; [5],< 1 µM
same,CC50 at 5 days,[2],10 to 100 µM
same,IC50,[3],< 1 µM
same,EC50,[4],< 1 µM
COc1cc(C(=O)NCC(O)(CO)c2ccc(OC)c(-c3ccc(F)c(Cl)c3)n2)ccc1OC1CC1 (centres unmarked) [Compound 384],EC50,[1]; [5],< 1 µM
same,CC50 at 5 days,[2],10 to 100 µM
same,IC50,[3],< 1 µM
same,EC50,[4],< 1 µM
COc1cc(C(=O)NCC(F)(CO)c2ccc(OC)c(-c3ccc(F)c(Cl)c3)n2)ccc1OC1CC1 (centres unmarked) [Compound 385],EC50,[1]; [5],< 1 µM
same,CC50 at 5 days,[2],10 to 100 µM
same,IC50,[3],< 1 µM
same,EC50,[4],< 1 µM
CCNC(=O)NC(C)(C)c1cc(-c2ccc(F)c(Cl)c2)nc(C(O)(CNC(=O)c2ccc(OC3CC3)c(OC)c2)C(F)(F)F)c1 (centres unmarked) [Compound 387],EC50,[1]; [5],< 1 µM
same,CC50 at 5 days,[2],> 100 µM
same,IC50,[3],< 1 µM
same,EC50,[4],< 1 µM
CCNC(C)(C)c1cc(-c2ccc(F)cc2)nc(C(O)(CNC(=O)c2ccc(OC3CC3)c(OC)c2)C(F)(F)F)c1 (centres unmarked) [Compound 388],EC50,[1]; [5],< 1 µM
same,CC50 at 5 days,[2],10 to 100 µM
same,IC50,[3],< 1 µM
same,EC50,[4],< 1 µM
CCNC(C)(C)c1cc(-c2ccc(F)c(Cl)c2)nc(C(O)(CNC(=O)c2ccc(OC[C@H](C)O)c(OC)c2)C(F)(F)F)c1 (some centres unmarked) [Compound 391],EC50,[1]; [5],< 1 µM
same,CC50 at 5 days,[2],10 to 100 µM
same,IC50,[3],< 1 µM
same,EC50,[4],< 1 µM
COc1cc(C(=O)NCC(O)(c2cc(C(C)(C)NC(C)C)cc(-c3ccc(F)c(Cl)c3)n2)C(F)(F)F)ccc1OC1CC1 (centres unmarked) [Compound 392],EC50,[1]; [5],< 1 µM
same,CC50 at 5 days,[2],10 to 100 µM
same,IC50,[3],< 1 µM
same,EC50,[4],< 1 µM
COc1cc(C(=O)NCC(O)(c2cc(C(C)(C)N)cc(-c3ccc(F)c(Cl)c3)n2)C(F)(F)F)ccc1OCC(C)(C)O (centres unmarked) [Compound 396],EC50,[1]; [5],< 1 µM
same,CC50 at 5 days,[2],10 to 100 µM
same,IC50,[3],< 1 µM
same,EC50,[4],< 1 µM
COc1cc(C(=O)NCC(O)(c2cc(C(C)(C)N(C)C)cc(-c3ccc(F)c(Cl)c3)n2)C(F)(F)F)ccc1OC1CC1 (centres unmarked) [Compound 400],EC50,[1]; [6],< 1 µM
same,CC50 at 5 days,[2],10 to 100 µM
same,IC50,[3],< 1 µM
same,EC50,[4],< 1 µM
COc1cc(C(=O)NCC(C)(O)c2ccc(OC)c(-c3ccc(F)c(Br)c3)n2)ccc1OCC(N)=O (centres unmarked) [Compound 403],EC50,[1]; [5],< 1 µM
same,CC50 at 5 days,[2],> 100 µM
same,IC50,[3],< 1 µM
same,EC50,[4],< 1 µM
COc1cc(C(=O)NCC(C)(O)c2ccc(OC)c(-c3c[nH]c4c(F)cccc34)n2)ccc1OCC(N)=O (centres unmarked) [Compound 419],EC50,[1]; [5],< 1 µM
same,CC50 at 5 days,[2],> 100 µM
same,IC50,[3],< 1 µM
same,EC50,[4],< 1 µM
COc1cc(C(=O)NCC(O)(CF)c2ccc(OC)c(-c3ccc(F)c(Cl)c3)n2)ccc1OCCO (centres unmarked) [Compound 424],EC50,[1]; [5],< 1 µM
same,CC50 at 5 days,[2],10 to 100 µM
same,IC50,[3],< 1 µM
same,EC50,[4],< 1 µM
COc1ccc(C(O)(CNC(=O)c2ccc(OCCO)c(Cl)c2)C2CC2)nc1-c1ccc(F)c(Cl)c1 (centres unmarked) [Compound 425],EC50,[1]; [5],< 1 µM
same,CC50 at 5 days,[2],10 to 100 µM
same,IC50,[3],< 1 µM
same,EC50,[4],< 1 µM
COc1cc(C(=O)NCC(O)(c2ccc(OC)c(-c3ccc(F)c(Cl)c3)n2)C2CC2)ccc1Cn1cncn1 (centres unmarked) [Compound 434],EC50,[1]; [5],< 1 µM
same,CC50 at 5 days,[2],10 to 100 µM
same,IC50,[3],< 1 µM
same,EC50,[4],< 1 µM
COc1cc(C(=O)NCC(O)(c2ccc(OC)c(-c3ccc(F)c(Cl)c3)n2)C(F)F)ccc1OCCO (centres unmarked) [Compound 436],EC50,[1]; [5],< 1 µM
same,CC50 at 5 days,[2],10 to 100 µM
same,IC50,[3],< 1 µM
same,EC50,[4],< 1 µM
COc1cc(C(=O)NCC(O)(c2ccc(OC)c(-c3ccc(F)c(Cl)c3)n2)C2CC2)ccc1OC(C)(F)F (centres unmarked) [Compound 437],EC50,[1]; [5],1 to 50 µM
same,CC50 at 5 days,[2],10 to 100 µM
same,IC50,[3],< 1 µM
same,EC50,[4],< 1 µM
COc1cc(C(=O)NCC(O)(c2ccc(OC)c(-c3ccc(F)c(Cl)c3)n2)C2CC2)ccc1Cn1ccnc1 (centres unmarked) [Compound 438],EC50,[1]; [5],1 to 50 µM
same,CC50 at 5 days,[2],10 to 100 µM
same,IC50,[3],< 10 µM
same,EC50,[4],1 to 50 µM
COc1cc(C(=O)NCC(O)(c2ccc(OC)c(-c3ccc(F)c(Br)c3)n2)C(F)(F)F)ccc1OCC(N)=O (centres unmarked) [Compound 443],EC50,[1]; [5],< 1 µM
same,CC50 at 5 days,[2],10 to 100 µM
same,IC50,[3],< 1 µM
same,EC50,[4],< 1 µM

# Reference: patent US11021444B2, “Antiviral compounds” (priority 2013, dated 2021)
